This data set can be described thus: Plasma exposure (pharmacokinetics) of darunavir and efavirenz after oral administration of formulations. To be noted: for concentration at 1 h / concentration at 2 h: male, Sprague-Dawley, 10 mg/kg, average plasma concentration. On the procedure: In this study, the exposure and distribution of darunavir and efavirenz were evaluated following oral administration in male Sprague-Dawley rats. Four cohorts of 10 rats each were used in this study. The first cohort involved darunavir using the disclosed formulations and the second cohort darunavir in a control formulation. The third cohort involved efavirenz using the disclosed formulations and the fourth cohort efavirenz in a control formulation.
Formulations were administered orally (PO) at 10 mg/kg of darunavir or efavirenz. Following dosing, blood, urine and fecal samples were collected up to 8-hour post dose (groups 1, 3, 5, and 7) or 24-hour post dose (groups 2, 4, 6, and 8). Brain tissue was collected at 8 hours or 24 hours, following the 8 hour or 24-hour urine and feces sample collection. Plasma, urine, feces, and brain tissue concentrations of the analytes were determined by LC-MS/MS. Plasma pharmacokinetic parameters were determined using WinNonlin (v8.0) software.
Plasma, urine, feces, and brain tissue samples were extracted and analyzed using the methods described as follows.
Analytical stock solutions (1.00 mg/mL of the free drug) were prepared in DMSO. Sample Homogenization Brain tissue and feces samples were homogenized with a Virsonic 100 ultrasonic homogenizer. Each brain tissue sample was first weighed, and then an appropriate volume of 20:80 methanol:water was added to make a 2 mL/gram sample. Samples were then homogenized on ice, and stored frozen until analysis. Feces samples were homogenized with 20:80 MeOH:water (8 mL/gram of tissue) prior to extraction. Standard Preparation (Plasma, Urine, and Brain) Standards were prepared in rat plasma containing sodium heparin as the anticoagulant, or in blank tissue homogenate. Working solutions were prepared in 50:50 acetonitrile:water. Working solutions were then added to blank matrix to make calibration standards to final concentrations of 1000, 500, 250, 100, 75.0, 50.0, 25.0, and 10 ng/mL. Standards were treated identically to the study samples. Sample Extraction (Plasma, Urine, Feces, and Brain) Plasma, urine, feces, and brain tissue samples were manually extracted via acetonitrile precipitation in a 96-well plate. Urine samples were diluted a minimum of 5-fold into blank rat plasma prior to extraction. Diluted urine samples were quantified against the rat plasma calibration curve. Brain and feces tissue homogenates were quantified against calibration curves prepared in matched blank tissue homogenate.

Setting [1] is: rat, in vivo, po, animals given the control formulation, rats.
Setting [2] is: rat, plasma, po, animals given the control formulation, rats.
Where [3] appears, read: rat, plasma, po, test animals (disclosed test formulation), rats.

Each structure is given as a SMILES string.

For `CC(C)CN(C[C@@H](O)[C@H](Cc1ccccc1)NC(=O)O[C@H]1CO[C@H]2OCC[C@H]21)S(=O)(=O)c1ccc(N)cc1` [darunavir], under setting [1], the concentration at 1 h is ~185 ng/mL and the concentration at 2 h was ~63 ng/mL. Also, the concentration at 2 h (rat, in vivo, po, test animals (disclosed test formulation), rats) was ~153 ng/mL. The “plasma concentration with disclosed compositions versus control formulations” value (oral, rats, disclosed formulation compared with control formulation) is “double the plasma concentration”.

Take `O=C1Nc2ccc(Cl)cc2[C@@](C#CC2CC2)(C(F)(F)F)O1` [efavirenz]: under setting [2], the concentration at 1 h is ~139 ng/mL and the concentration at 2 h was ~117 ng/mL. Under setting [3], the concentration at 1 h is ~133 ng/mL and the concentration at 2 h is ~142 ng/mL. For the same compound, the “plasma concentration with disclosed compositions versus control formulations” value (rat, in vivo, po) was “higher levels than control formulations”.

For the origin of these results see patent US20210330683A1, “COMPOSITIONS AND METHODS FOR ENHANCED DELIVERY OF ANTIVIRAL AGENTS” (POVIVA CORP., priority 2020, published 2021).
